{"source": "patent US20230365592A1", "about": "(Agios Pharmaceuticals, Inc., priority 2022, published 2023)", "data": [{"target": "T1, human PAH with the R408W mutation (Homo sapiens, UniProt P00439, R408W)", "T1 construct": "expressed in transfected cells", "T1 sequence (P00439 1-452 R408W)": "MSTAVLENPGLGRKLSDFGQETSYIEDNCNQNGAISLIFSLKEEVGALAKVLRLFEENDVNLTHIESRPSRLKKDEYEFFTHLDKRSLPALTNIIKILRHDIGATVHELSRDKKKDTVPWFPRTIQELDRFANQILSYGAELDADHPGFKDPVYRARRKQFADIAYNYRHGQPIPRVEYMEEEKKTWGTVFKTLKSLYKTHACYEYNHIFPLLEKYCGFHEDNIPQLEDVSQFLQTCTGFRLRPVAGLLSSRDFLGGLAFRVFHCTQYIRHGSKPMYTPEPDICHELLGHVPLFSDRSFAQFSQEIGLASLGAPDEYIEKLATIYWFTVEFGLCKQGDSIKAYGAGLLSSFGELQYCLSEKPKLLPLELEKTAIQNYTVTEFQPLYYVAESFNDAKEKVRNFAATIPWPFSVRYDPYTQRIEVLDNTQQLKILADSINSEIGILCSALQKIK", "assay": "Cell Based Phenylalanine Flux Assay;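 note: after compound treatment, cells received sepiapterin plus isotope-labelled Phenylalanine for 4 hours, then labelled Tyrosine in the medium was quantified, 10-point 2-fold dilution series run in duplicate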", "conditions": "A375 cells expressing R408W PAH; 24 hrs with compound, then 20 µM sepiapterin and 800 µM 13C9,15N-Phenylalanine for 4 hours; 13C-Tyrosine by LC-MS; average where tested multiple times; read-out: AC50", "units": {"AC50": "nM"}, "values": [{"smiles": "Cc1cccn2nc(C3c4nc[nH]c4CCN3C(=O)c3nnc(-c4cn[nH]c4)o3)cc12", "note": "(centres unmarked)", "AC50": "1000 to 5000"}, {"smiles": "Nc1cnc(N2CCc3[nH]cnc3C2c2cc3ccccn3n2)nc1", "note": "(centres unmarked)", "AC50": "> 5000"}, {"smiles": "Cc1cccn2nc(C3c4nc[nH]c4CCN3c3nnc(C(=O)N(C)C)o3)cc12", "note": "(centres unmarked)", "AC50": "1000 to 5000"}, {"smiles": "Cc1cccc2cc([C@@H]3c4nc[nH]c4CCN3C(=O)c3cnc(C(C)(C)O)o3)nn12", "note": "(single isomer, unassigned)", "AC50": "1000 to 5000"}, {"smiles": "Cc1nc(C(C)(C)O)oc1C(=O)N1CCc2[nH]cnc2C1c1cc2cccc(C(F)(F)F)n2n1", "note": "(centres unmarked)", "AC50": "1000 to 5000"}, {"smiles": "O=C(c1nnc(-c2cnn(C(F)(F)F)c2)o1)N1CCc2[nH]cnc2C1c1cc2cccc(F)n2n1", "note": "(centres unmarked) [listing 1 of 2 here]", "AC50": "1000 to 5000"}, {"smiles": "CC(C)(C)c1nnc(N2CCc3[nH]cnc3C2c2cc3c(F)cccn3n2)o1", "note": "(centres unmarked)", "AC50": "> 5000"}, {"smiles": "O=C(c1nnc(-c2cnn(C(F)(F)F)c2)o1)N1CCc2[nH]cnc2C1c1cc2cccc(F)n2n1", "note": "(centres unmarked) [listing 2 of 2 here]", "AC50": "> 5000"}]}, {"target": "T1, human PAH with the R408W mutation", "assay": "Cell Based Phenylalanine Flux Assay", "conditions": "A375 cells expressing human PAH R408W; 24 hrs compound incubation; 13C-Tyrosine by LC-MS; average where tested multiple times; read-out: AC50", "units": {"AC50": "nM"}, "values": [{"smiles": "Cc1cccn2nc([C@H]3c4nc[nH]c4CCN3C(=O)[C@@H]3CC3(F)F)cc12", "note": "[Example 2029, ((S)-2,2-difluorocyclopropyl)((R)-4-(4-methylpyrazolo[1,5-a]pyridin-2-yl)-1,4,6,7-tetrahydro-5H-imidazo[4,5-c]pyridin-5-yl)methanone]", "AC50": "> 5000"}, {"smiles": "Cc1cccc2cc([C@H]3c4nc[nH]c4CCN3c3ccc(C(F)(F)F)cn3)nn12", "note": "[Example 2096, (R)-4-(7-methylpyrazolo[1,5-a]pyridin-2-yl)-5-(5-(trifluoromethyl)pyridin-2-yl)-4,5,6,7-tetrahydro-1H-imidazo[4,5-c]pyridine]", "AC50": "> 5000"}, {"smiles": "CC(C)c1cccn2nc([C@H]3c4nc[nH]c4CCN3c3nnc(-c4ncccc4F)o3)cc12", "note": "[Example 2354, (R)-2-(3-fluoropyridin-2-yl)-5-(4-(4-isopropylpyrazolo[1,5-a]pyridin-2-yl)-1,4,6,7-tetrahydro-5H-imidazo[4,5-c]pyridin-5-yl)-1,3,4-oxadiazole]", "AC50": "> 5000"}, {"smiles": "O=C(c1nc2ccccc2s1)N1CCc2[nH]cnc2[C@H]1c1cc2c(C(F)F)cccn2n1", "note": "[Example 2022, (S)-benzo[d]thiazol-2-yl(4-(4-(difluoromethyl)pyrazolo[1,5-a]pyridin-2-yl)-1,4,6,7-tetrahydro-5H-imidazo[4,5-c]pyridin-5-yl)methanone]", "AC50": "500 to 1000"}, {"smiles": "CC(C)c1cccn2nc([C@@H]3c4nc[nH]c4CCN3c3nnc(-c4ccncn4)o3)cc12", "note": "[Example 2180, (S)-2-(4-(4-isopropylpyrazolo[1,5-a]pyridin-2-yl)-1,4,6,7-tetrahydro-5H-imidazo[4,5-c]pyridin-5-yl)-5-(pyrimidin-4-yl)-1,3,4-oxadiazole]", "AC50": "500 to 1000"}, {"smiles": "O=C(c1ncco1)N1CCc2[nH]cnc2[C@H]1c1cc2c(C(F)F)cccn2n1", "note": "[Example 2076, (S)-(4-(4-(difluoromethyl)pyrazolo[1,5-a]pyridin-2-yl)-1,4,6,7-tetrahydro-5H-imidazo[4,5-c]pyridin-5-yl)(oxazol-2-yl)methanone]", "AC50": "500 to 1000"}, {"smiles": "COCCc1ccc2c(C(=O)N3CCc4[nH]cnc4[C@H]3c3cc4c(C)cccn4n3)cnn2c1", "note": "[Example 2478, (S)-(6-(2-methoxyethyl)pyrazolo[1,5-a]pyridin-3-yl)(4-(4-methylpyrazolo[1,5-a]pyridin-2-yl)-6,7-dihydro-1H-imidazo[4,5-c]pyridin-5(4H)-yl)methanone]", "AC50": "1000 to 5000"}, {"smiles": "Cc1ccn2nc([C@@H]3c4nc[nH]c4CCN3C(=O)c3nnc(-c4ccccn4)o3)cc2c1", "note": "[Example 2384, (S)-(4-(5-methylpyrazolo[1,5-a]pyridin-2-yl)-6,7-dihydro-1H-imidazo[4,5-c]pyridin-5(4H)-yl)(5-(pyridin-2-yl)-1,3,4-oxadiazol-2-yl)methanone]", "AC50": "1000 to 5000"}, {"smiles": "CC(F)(F)c1nnc(N2CCc3[nH]cnc3[C@@H]2c2cc3c(C(F)F)cccn3n2)o1", "note": "[Example 2202, (R)-2-(1,1-difluoroethyl)-5-(4-(4-(difluoromethyl)pyrazolo[1,5-a]pyridin-2-yl)-1,4,6,7-tetrahydro-5H-imidazo[4,5-c]pyridin-5-yl)-1,3,4-oxadiazole]", "AC50": "> 5000"}]}, {"target": "T1, human PAH with the R408W mutation", "assay": "Cell Based Phenylalanine Flux Assay", "conditions": "A375 cells expressing human R408W PAH; 24 hrs compound incubation; 13C-Tyrosine by LC-MS; average where tested multiple times; read-out: AC50", "units": {"AC50": "nM"}, "values": [{"smiles": "Cc1nnc(C(=O)N2CCc3[nH]cnc3[C@H]2c2cc3c(C(F)F)cccn3n2)o1", "note": "[Example 1283, (S)-(4-(4-(difluoromethyl)pyrazolo[1,5-a]pyridin-2-yl)-6,7-dihydro-1H-imidazo[4,5-c]pyridin-5(4H)-yl)(5-methyl-1,3,4-oxadiazol-2-yl)methanone]", "AC50": "500 to 1000"}, {"smiles": "Cc1cccc2cc([C@@H]3c4nc[nH]c4CCN3C(=O)c3oc([C@H](C)O)nc3C(F)F)nn12", "note": "[Example 1152, (4-(difluoromethyl)-2-((S)-1-hydroxyethyl)oxazol-5-yl)((S)-4-(7-methylpyrazolo[1,5-a]pyridin-2-yl)-6,7-dihydro-1H-imidazo[4,5-c]pyridin-5(4H)-yl)methanone]", "AC50": "< 500"}, {"smiles": "Cc1cccc(-c2nnc(C(=O)N3CCc4[nH]cnc4[C@H]3c3cc4cccc(C(F)(F)F)n4n3)o2)n1", "note": "[Example 1400, (S)-(5-(6-methylpyridin-2-yl)-1,3,4-oxadiazol-2-yl)(4-(7-(trifluoromethyl)pyrazolo[1,5-a]pyridin-2-yl)-6,7-dihydro-1H-imidazo[4,5-c]pyridin-5(4H)-yl)methanone]", "AC50": "< 500"}, {"smiles": "Cc1cccn2nc([C@H]3c4nc[nH]c4CCN3C(=O)c3nnc(-c4ccncc4)o3)cc12", "note": "[Example 851, (R)-(4-(4-methylpyrazolo[1,5-a]pyridin-2-yl)-6,7-dihydro-1H-imidazo[4,5-c]pyridin-5(4H)-yl)(5-(pyridin-4-yl)-1,3,4-oxadiazol-2-yl)methanone]", "AC50": "> 5000"}, {"smiles": "Cn1cc(C(=O)N2CCc3[nH]cnc3[C@H]2c2cc3ccccn3n2)c(Cl)n1", "note": "[Example 665, (S)-(3-chloro-1-methyl-1H-pyrazol-4-yl)(4-(pyrazolo[1,5-a]pyridin-2-yl)-6,7-dihydro-1H-imidazo[4,5-c]pyridin-5(4H)-yl)methanone]", "AC50": "< 500"}, {"smiles": "O=C(c1cnn2ccccc12)N1CCc2[nH]cnc2[C@H]1c1cc2ccccn2n1", "note": "[Example 600, (S)-(4-(pyrazolo[1,5-a]pyridin-2-yl)-6,7-dihydro-1H-imidazo[4,5-c]pyridin-5(4H)-yl)(pyrazolo[1,5-a]pyridin-3-yl)methanone]", "AC50": "500 to 1000"}, {"smiles": "C[C@@H](O)c1nc(C(F)F)c(C(=O)N2CCc3[nH]cnc3[C@@H]2c2cc3cccc(Cl)n3n2)o1", "note": "[Example 1197, ((R)-4-(7-chloropyrazolo[1,5-a]pyridin-2-yl)-6,7-dihydro-1H-imidazo[4,5-c]pyridin-5(4H)-yl)(4-(difluoromethyl)-2-((R)-1-hydroxyethyl)oxazol-5-yl)methanone]", "AC50": "1000 to 5000"}, {"smiles": "CC(C)(F)c1nc(C(F)F)c(C(=O)N2CCc3[nH]cnc3[C@H]2c2cc3c(F)cccn3n2)o1", "note": "[Example 1226, (S)-(4-(difluoromethyl)-2-(2-fluoropropan-2-yl)oxazol-5-yl)(4-(4-fluoropyrazolo[1,5-a]pyridin-2-yl)-6,7-dihydro-1H-imidazo[4,5-c]pyridin-5(4H)-yl)methanone]", "AC50": "< 500"}, {"smiles": "Cn1cc(C(=O)N2CCc3[nH]cnc3[C@@H]2c2cc3ccccn3n2)c(Cl)n1", "note": "[Example 664, (R)-(3-chloro-1-methyl-1H-pyrazol-4-yl)(4-(pyrazolo[1,5-a]pyridin-2-yl)-6,7-dihydro-1H-imidazo[4,5-c]pyridin-5(4H)-yl)methanone]", "AC50": "> 5000"}, {"smiles": "O=C(c1nnc(C2CCC2)o1)N1CCc2[nH]cnc2[C@H]1c1cc2cccc(F)n2n1", "note": "[Example 1575, (S)-(5-cyclobutyl-1,3,4-oxadiazol-2-yl)(4-(7-fluoropyrazolo[1,5-a]pyridin-2-yl)-6,7-dihydro-1H-imidazo[4,5-c]pyridin-5(4H)-yl)methanone]", "AC50": "< 500"}, {"smiles": "O=C(c1nnc(-c2cnn(C(F)F)c2)o1)N1CCc2[nH]cnc2[C@H]1c1cc2cccc(C(F)F)n2n1", "note": "[Example 1440, (S)-(5-(1-(difluoromethyl)-1H-pyrazol-4-yl)-1,3,4-oxadiazol-2-yl)(4-(7-(difluoromethyl)pyrazolo[1,5-a]pyridin-2-yl)-6,7-dihydro-1H-imidazo[4,5-c]pyridin-5(4H)-yl)methanone]", "AC50": "500 to 1000"}, {"smiles": "CC(C)n1nccc1C(=O)N1CCc2[nH]cnc2[C@H]1c1cc2c(F)cccn2n1", "note": "[Example 858, (S)-(4-(4-fluoropyrazolo[1,5-a]pyridin-2-yl)-6,7-dihydro-1H-imidazo[4,5-c]pyridin-5(4H)-yl)(1-isopropyl-1H-pyrazol-5-yl)methanone]", "AC50": "< 500"}, {"smiles": "Cc1cccn2nc([C@@H]3c4nc[nH]c4CCN3C(=O)c3cnn4ccccc34)cc12", "note": "[Example 1286, (S)-(4-(4-methylpyrazolo[1,5-a]pyridin-2-yl)-6,7-dihydro-1H-imidazo[4,5-c]pyridin-5(4H)-yl)(pyrazolo[1,5-a]pyridin-3-yl)methanone]", "AC50": "< 500"}, {"smiles": "Cc1cccn2nc([C@@H]3c4nc[nH]c4CCN3C(=O)c3nnc(-c4ncccn4)o3)cc12", "note": "[Example 1311, (S)-(4-(4-methylpyrazolo[1,5-a]pyridin-2-yl)-6,7-dihydro-1H-imidazo[4,5-c]pyridin-5(4H)-yl)(5-(pyrimidin-2-yl)-1,3,4-oxadiazol-2-yl)methanone]", "AC50": "500 to 1000"}, {"smiles": "Fc1cccn2nc([C@@H]3c4nc[nH]c4CCN3c3nnc(C(F)F)o3)cc12", "note": "[Example 1737, (S)-2-(difluoromethyl)-5-(4-(4-fluoropyrazolo[1,5-a]pyridin-2-yl)-6,7-dihydro-1H-imidazo[4,5-c]pyridin-5(4H)-yl)-1,3,4-oxadiazole]", "AC50": "500 to 1000"}]}]}
